Read-outs that look alike come from different tables or passages of the source.
Tests used:
ovalbumen = experiment: Anti-allergic activity (ovalbumen challenge in sensitised animals, tracheal inflation pressure); format: in vivo, Duncan Hartley guinea-pigs; conditions: dose of 17 µmol/kg i.v.; ovalbumen challenge 30 minutes following drug administration
Procedure: Male Duncan Hartley guinea-pigs (250-300 g) were sensitised to ovalbumen by i.p. injection of 2 ml of 50mg.ml⁻¹ i.p. and 0.2 ml s.c. Three weeks later they were anaesthetised with 60mg.kg⁻¹ sodium pentabarbitone. The trachea was cannulated and the animal respired at a rate of 40 breaths per minute and at an initial tracheal inflation pressure of 16 mmHg. Tracheal inflation pressure was measured by a transducer connected to a side arm of the respiration circuit. The carotid artery was cannulated for the measurement of blood pressure and the signal was used to trigger an instantaneous rate meter. A jugular vein was cannulated for the administration of drug and allergen. After surgery the animals were allowed to stabilise and the drug was administered i.v. as a bolus. Following this, ovalbumen 1mg.kg⁻¹ was injected i.v. as the antigen challenge either 2, 15 or 30 minutes following drug treatment and the peak bronchoconstrictor response recorded. For the control group ovalbumen only was given. One ovalbumen challenge per guinea-pig was used and n = 6 for each time point. The percentage increase in tracheal inflation pressure was calculated.

[1] = test system: spontaneous colonic activity; experiment: Inhibition of spontaneous colonic activity in vitro (isolated distal colon, organ bath); parameters: species or system guinea-pigs; conditions: concentration reducing spontaneous colonic activity by 50%, guinea-pig distal colon, Krebs solution at 37°C, read-out: IC₅₀
Source text: Male albino guinea-pigs (300 - 400g) were killed by a blow to the back of the head and exsanguinated. A 2cm long segment of the proximal part of the hypogastric loop of the distal colon was rapidly dissected out and placed in oxygenated (95% O₂, 5% CO₂) modified warm Krebs solution. The tissue was cleaned out with Krebs and the adjoining mesentery discarded. Cotton was then tied to each end and the colon was attached to a tissue holder in an organ bath containing modified oxygenated Krebs solution at 37°C. The other end of the tissue was tied to an isometric transducer and placed under 1g tension. Force developed by the muscle was detected by the transducer, and recorded on a multitrace pen recorder. Spontaneous colonic activity, as assessed by the contraction distance over a five minute period, was subjected to computer analysis.
The tissues were allowed to settle at a resting tension of 1g for 1 hour, during which time they were washed at 15 minute intervals. Three samples of pre-dose activity were taken and averaged. The tissues were then dosed and two samples of post-dose activity were taken. The lowest value was used to calculate the percentage relaxation, and log dose response curves were constructed. The tissues were washed 10 minutes after dosing and left for 15 minutes to settle prior to the next control period. […]

With `CC(C)COc1ccc(F)cc1-c1ccc(C(N)=O)c(=O)[nH]1` [Example 25, 6-(5-Fluoro-2-(2-methylpropoxy)phenyl)-1,2-dihydro-2-oxo-pyridine-3-carboxamide] the “inhibition of the control bronchoconstrictor response” value (ovalbumen) was 40%.
`CCCOc1cc(OC)ccc1-c1ccc(C(N)=O)c(=O)[nH]1` [Example 9(b), 1,2-Dihydro-6-(4-methoxy-2-propoxyphenyl)-2-oxo-3-pyridine carboxamide] gave an IC50 ([1]; Cavia porcellus) of 3000 nM.
In the case of `CCCOc1ccc(C(N)=O)cc1-c1ccc(C(N)=O)c(=O)[nH]1` [Example 13, 3-(3-Carboxamido-1,2-dihydro-2-oxo-6-pyidinyl)-4-propoxybenzamide], the IC50 [1] is reported as 1100 nM.

Reference: patent EP0428268A2, “Pharmaceutical phenylpyridone derivatives” (SMITH KLINE & FRENCH LABORATORIES LIMITED, priority 1989, dated 1991)
